pIC50: −log10 of the molar value.
Tested on: arteria saphena rings
Assay: Vasorelaxant effect in vitro (phenylephrine-contracted rings of rabbit arteria saphena)
Assay type: cell-based
Conditions: Oryctolagus cuniculus, contraction generated by phenylephrine, concentration reducing height of control contraction by 50%
Experimental: Vasorelaxant Effect in Vitro
Rabbits are anesthetized or killed by intravenous injection of thiopental sodium (about 50 mg/kg) and exsanguinated. The arteria saphena is removed and divided into rings 3 mm wide. The individual rings are in each case mounted on a pair of hooks of triangular shape, open at the ends and made of special wire (Remanium®) having a diameter of 0.3 mm. Under tension, each ring is introduced into a 5 ml organ bath containing carbogen-gassed Krebs-Henseleit solution at 37° C. with the following composition (mM): NaCl: 119; KCl: 4.8; CaCl2×2H2O: 1; MgSO4×7H2O: 1.4; KH2PO4: 1.2; NaHCO3: 25; glucose: 10; bovine serum albumin: 0.001%. The force of contraction is detected with Statham UC2 cells, amplified and digitized via A/D converters (DAS-1802 HC, Keithley Instruments, Munich) and recorded in parallel on chart recorders. Contractions are generated by adding phenylephrine.
After several (generally 4) control cycles, the substance to be investigated is added in each further run in increasing dosage in each case, and the height of the contraction reached under the influence of the test substance is compared with the height of the contraction reached in the last preceding run. The concentration necessary to reduce the height of the control value by 50% (IC50) is calculated from this. The standard application volume is 5 μl. The DMSO content in the bath solution corresponds to 0.1%.

In order of rising pIC50:
1. Cc1ccc(OCc2ccc(-c3ccc(C(F)(F)F)cc3)cc2)c(CCN(CCCCC(=O)O)Cc2ccc(C(=O)O)cc2)n1 [Example 16]  6.90
2. COc1ccc(-c2ccc(COc3cc4c(cc3CCN(CCCCC(=O)O)Cc3ccc(C(=O)O)cc3)CCCC4)cc2)cc1 [Example 13, 4-{[(4-Carboxybutyl)(2-{3-[(4′-methoxy-1,1′-biphenyl-4-yl)methoxy]-5,6,7,8-tetrahydro-2-naphthyl}ethyl)amino]methyl}benzoic acid]  7.03
3. Cc1sc(C)c(COc2ccc(-c3ccc(C(C)(C)C)cc3)cc2)c1CCN(CCCCC(=O)O)Cc1ccc(C(=O)O)cc1 [Example 9]  7.21
4. COc1cccc(-c2ccc(OCc3c(C)sc(C)c3CCN(CCCCC(=O)O)Cc3ccc(C(=O)O)cc3)cc2)c1 [Example 10]  7.29
5. Cc1sc(C)c(COc2ccc(-c3ccc(C(F)(F)F)cc3)cc2)c1CCN(CCCCC(=O)O)Cc1ccc(C(=O)O)cc1 [Example 4]  7.66
6. COc1ccc(-c2ccc(OCc3c(C)sc(C)c3CCN(CCCCC(=O)O)Cc3ccc(C(=O)O)cc3)cc2)cc1 [Example 5]  8.15
7. Cc1sc(C)c(COc2ccc(-c3ccc(Cl)cc3Cl)cc2)c1CCN(CCCCC(=O)O)Cc1ccc(C(=O)O)cc1 [Example 3, 4-({(4-Carboxybutyl)[2-(4-{[(2′,4′-dichloro-1,1′-biphenyl-4-yl)oxy]methyl}-2,5-dimethyl-3-thienyl)ethyl]amino}methyl)benzoic acid]  8.70

Tested on: not given
Assay: not given
Conditions: not given

With `COc1ccc(-c2ccc(COc3cc4c(cc3CCN(CCCCC(=O)O)Cc3ccc(C(=O)O)cc3)CCCC4)cc2)cc1` [Example 13, 4-{[(4-Carboxybutyl)(2-{3-[(4′-methoxy-1,1′-biphenyl-4-yl)methoxy]-5,6,7,8-tetrahydro-2-naphthyl}ethyl)amino]methyl}benzoic acid] the melting point was > 240 °C.

Reference: US7705043B2, “Substituted aminodicarboxylic acid derivatives having pharmaceutical properties” (Bayer Schering Pharma Aktiengesellschaft, priority 2001, dated 2010)
